From patent US11325899B2, “Benzofurane and benzothiophene derivatives as PGE2 receptor modulators” (IDORSIA PHARMACEUTICALS LTD, priority 2017, dated 2022)

What was measured:
Assay type in all cases: cell-based
[1] = target: T1, PTGER2 (EP2) (Homo sapiens, UniProt P43116); test: hEP2 b-arrestin assay (PathHunter HEK 293 PTGER2 b-arrestin cells); conditions: antagonistic activity, beta-arrestin assay; read-out: hEP2 b-arr IC50
T1 construct: host or cells: HEK 293 (PathHunter PTGER2 b-arrestin cell line)
In short: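 PathHunter HEK293 cells with ProLink-tagged EP2 and EA-β-arrestin 2 preincubated 15 min at 37 °C with compound (10 μM-2 nM or 1 μM-0.2 nM), then stimulated 120 min with 5 μM PGE2 (EC80). β-gal complementation read by chemiluminescence; IC50 from duplicate dose-response versus DMSO.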

[2] = target: T2, PTGER4 (EP4) (Homo sapiens, UniProt P35408); test: hEP4 b-arrestin assay (PathHunter HEK 293 PTGER4 b-arrestin cells); conditions: antagonistic activity, beta-arrestin assay; read-out: hEP4 b-arr IC50
T2 construct: host or cells: HEK 293 (PathHunter PTGER4 b-arrestin cell line)
In short: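 PathHunter HEK 293 cells expressing ProLink-tagged human EP4 and EA-β-arrestin 2, seeded 24 h before. Compounds (10 μM–2 nM or 1 μM–0.2 nM) preincubated 15 min at 37 °C, then 20 nM PGE2 (EC80) for 120 min at 37 °C. β-gal complementation luminescence read; IC50 from duplicate dose-response curves versus DMSO control.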

[3] = target: T3, EP2 receptor (Homo sapiens, UniProt P43116); test: hEP2 cAMP assay (SF295 glioblastoma cells, HTRF cAMP, PGE2 stimulation); conditions: antagonistic activity
T3 construct: SF295 glioblastoma cells express high endogenous EP2 and no EP4; host or cells: SF295 glioblastoma cells
In short: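 SF295 glioblastoma cells with endogenous EP2 and no EP4, in HBSS/HEPES/BSA with 2 mM IBMX, pre-incubated 45 min at room temperature with compound, then stimulated 30 min with 75 nM PGE2 (EC80). cAMP measured by HTRF; IC50 fitted from duplicate % cAMP versus DMSO control.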

T3 sequence (P43116 whole entry): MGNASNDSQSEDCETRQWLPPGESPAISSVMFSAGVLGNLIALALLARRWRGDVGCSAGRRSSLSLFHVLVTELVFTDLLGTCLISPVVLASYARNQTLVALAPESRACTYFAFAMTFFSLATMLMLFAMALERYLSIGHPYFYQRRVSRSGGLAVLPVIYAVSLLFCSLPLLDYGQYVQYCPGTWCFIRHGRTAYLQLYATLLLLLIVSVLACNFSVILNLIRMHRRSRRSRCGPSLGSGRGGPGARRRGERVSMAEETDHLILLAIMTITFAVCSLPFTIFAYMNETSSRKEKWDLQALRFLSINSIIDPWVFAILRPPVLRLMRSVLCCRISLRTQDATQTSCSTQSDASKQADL
T1 sequence (P43116 whole entry): as above
T2 sequence (P35408 whole entry): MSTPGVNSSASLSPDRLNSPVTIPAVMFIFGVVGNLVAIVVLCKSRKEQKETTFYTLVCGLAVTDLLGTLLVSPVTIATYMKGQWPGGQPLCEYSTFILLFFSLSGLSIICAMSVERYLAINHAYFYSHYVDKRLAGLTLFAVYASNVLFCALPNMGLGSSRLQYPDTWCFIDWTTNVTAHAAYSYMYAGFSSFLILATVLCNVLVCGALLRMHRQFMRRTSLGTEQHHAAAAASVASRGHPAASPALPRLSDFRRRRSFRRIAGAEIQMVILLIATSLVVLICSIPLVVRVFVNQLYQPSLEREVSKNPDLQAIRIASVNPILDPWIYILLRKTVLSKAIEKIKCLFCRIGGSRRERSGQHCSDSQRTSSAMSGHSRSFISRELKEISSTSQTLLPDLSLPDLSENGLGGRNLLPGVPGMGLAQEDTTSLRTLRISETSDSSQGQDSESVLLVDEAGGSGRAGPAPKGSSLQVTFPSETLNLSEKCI

Question: For `Cc1cc(-c2cc(NCCc3c(C)oc4c(C)cc(F)cc34)ncn2)sc1C(=O)O` [Example 2, 5-{6-[2-(5-Fluoro-2,7-dimethyl-benzofuran-3-yl)-ethylamino]-pyrimidin-4-yl}-3-methyl-thiophene-2-carboxylic acid], which IC50 [1] is on record?
Answer: 25 nM

Question: What about the IC50 [2] of the same compound?
Answer: 189 nM

Question: And the IC50 [3]?
Answer: 23 nM

Question: How did the IC50 [1] turn out when `Cc1cc(-c2cc(NCCc3c(C)sc4c(C)cccc34)ncn2)sc1C(=O)O` [Example 3, 5-{6-[2-(2,7-Dimethyl-benzo[b]thiophen-3-yl)-ethylamino]-pyrimidin-4-yl}-3-methyl-thiophene-2-carboxylic acid] was run?
Answer: 18 nM

Question: And the IC50 [2]?
Answer: 202 nM

Question: What about the IC50 [3] of the same compound?
Answer: 18 nM

Question: What does the source list for `Cc1cc(-c2cc(NCCc3c(C)oc4c(C)cc(Cl)cc34)ncn2)sc1C(=O)O` [Example 4, 5-{6-[2-(5-Chloro-2,7-dimethyl-benzofuran-3-yl)-ethylamino]-pyrimidin-4-yl}-3-methyl-thiophene-2-carboxylic acid]?
Answer: IC50 [1]: 11 nM; IC50 [2]: 262 nM; IC50 [3]: 33 nM

Question: How did the IC50 [1] turn out when `CSc1cc(-c2cc(NCCc3c(C)sc4c(C)cccc34)ncn2)ccc1C(=O)O` [Example 14, 4-{6-[2-(2,7-Dimethyl-benzo[b]thiophen-3-yl)-ethylamino]-pyrimidin-4-yl}-2-methylsulfanyl-benzoic acid] was run?
Answer: 4 nM

Question: And the IC50 [2]?
Answer: 195 nM

Question: What about the IC50 [3] of the same compound?
Answer: 6 nM

Question: With `COc1ccc(Cl)c2c(CCNc3cc(-c4ccc(C(=O)O)c(SC)c4)ncn3)c(C)sc12` [Example 15, 4-{6-[2-(4-Chloro-7-methoxy-2-methyl-benzo[b]thiophen-3-yl)-ethylamino]-pyrimidin-4-yl}-2-methylsulfanyl-benzoic acid] as the compound, how does the IC50 [1] read?
Answer: 6 nM

Question: And the IC50 [2]?
Answer: 168 nM

Question: What about the IC50 [3] of the same compound?
Answer: 21 nM

Question: Which IC50 [1] does the source give for `CSc1cc(-c2cc(NCCc3c(C)oc4c(C)cc(F)cc34)ncn2)ccc1C(=O)O` [Example 16, 4-{6-[2-(5-Fluoro-2,7-dimethyl-benzofuran-3-yl)-ethylamino]-pyrimidin-4-yl}-2-methylsulfanyl-benzoic acid] here?
Answer: 13 nM

Question: What about the IC50 [2] of the same compound?
Answer: 391 nM

Question: And the IC50 [3]?
Answer: 21 nM

Question: With `CSc1cc(-c2cc(NCCc3c(C)sc4c(C)cc(F)cc34)ncn2)ccc1C(=O)O` [Example 17, 4-{6-[2-(5-Fluoro-2,7-dimethyl-benzo[b]thiophen-3-yl)-ethylamino]-pyrimidin-4-yl}-2-methylsulfanyl-benzoic acid] as the compound, how does the IC50 [1] read?
Answer: 5 nM

Question: And the IC50 [2]?
Answer: 248 nM

Question: What about the IC50 [3] of the same compound?
Answer: 9 nM

Question: `CSc1cc(-c2cc(NCCc3c(C)oc4ccccc34)ncn2)ccc1C(=O)O` [Example 18, 4-{6-[2-(2-Methyl-benzofuran-3-yl)-ethylamino]-pyrimidin-4-yl}-2-methylsulfanyl-benzoic acid] was tested. Which IC50 [1] did it give?
Answer: 1 nM

Question: What about the IC50 [2] of the same compound?
Answer: 1200 nM

Question: And the IC50 [3]?
Answer: 1 nM

Question: Which results are given for `CSc1cc(-c2cc(NCCc3c(C)sc4c(C)ccc(Cl)c34)ncn2)ccc1C(=O)O` [Example 19, 4-{6-[2-(4-Chloro-2,7-dimethyl-benzo[b]thiophen-3-yl)-ethylamino]-pyrimidin-4-yl}-2-methylsulfanyl-benzoic acid]?
Answer: IC50 [1]: 12 nM; IC50 [2]: 414 nM; IC50 [3]: 83 nM

Question: For `CSc1cc(-c2cc(NCCc3c(C)sc4c(Cl)ccc(Cl)c34)ncn2)ccc1C(=O)O` [Example 20, 4-{6-[2-(4,7-Dichloro-2-methyl-benzo[b]thiophen-3-yl)-ethylamino]-pyrimidin-4-yl}-2-methylsulfanyl-benzoic acid], which IC50 [1] is on record?
Answer: 30 nM

Question: And the IC50 [2]?
Answer: 762 nM

Question: And the IC50 [3]?
Answer: 26 nM

Question: Which IC50 [1] does the source give for `CSc1cc(-c2cc(NCCc3c(C)sc4c(C)c(F)ccc34)ncn2)ccc1C(=O)O` [Example 21, 4-{6-[2-(6-Fluoro-2,7-dimethyl-benzo[b]thiophen-3-yl)-ethylamino]-pyrimidin-4-yl}-2-methylsulfanyl-benzoic acid] here?
Answer: 4 nM

Question: What about the IC50 [2] of the same compound?
Answer: 283 nM

Question: And the IC50 [3]?
Answer: 24 nM

Question: With `CCc1oc2c(C)cc(F)cc2c1CCNc1cc(-c2ccc(C(=O)O)c(SC)c2)ncn1` [Example 22, 4-{6-[2-(2-Ethyl-5-fluoro-7-methyl-benzofuran-3-yl)-ethylamino]-pyrimidin-4-yl}-2-methylsulfanyl-benzoic acid] as the compound, how does the IC50 [1] read?
Answer: 101 nM

Question: What about the IC50 [2] of the same compound?
Answer: 493 nM

Question: And the IC50 [3]?
Answer: 172 nM

Question: How did the IC50 [1] turn out when `CSc1cc(-c2cc(NCCc3c(C)sc4c(Cl)cc(F)cc34)ncn2)ccc1C(=O)O` [Example 23, 4-{6-[2-(7-Chloro-5-fluoro-2-methyl-benzo[b]thiophen-3-yl)-ethylamino]-pyrimidin-4-yl}-2-methylsulfanyl-benzoic acid] was run?
Answer: 9 nM

Question: What about the IC50 [2] of the same compound?
Answer: 488 nM

Question: And the IC50 [3]?
Answer: 27 nM

Question: For `CSc1cc(-c2cc(NCCc3c(C)sc4ccccc34)ncn2)ccc1C(=O)O` [Example 24, 4-{6-[2-(2-Methyl-benzo[b]thiophen-3-yl)-ethylamino]-pyrimidin-4-yl}-2-methylsulfanyl-benzoic acid], which IC50 [1] is on record?
Answer: 3 nM

Question: What about the IC50 [2] of the same compound?
Answer: 3420 nM

Question: And the IC50 [3]?
Answer: 4 nM

Question: With `CCOc1cc(-c2cc(NCCc3c(C)sc4c(C)ccc(F)c34)ncn2)sc1C(=O)O` [Example 25, 3-Ethoxy-5-{6-[2-(4-fluoro-2,7-dimethyl-benzo[b]thiophen-3-yl)-ethylamino]-pyrimidin-4-yl}-thiophene-2-carboxylic acid] as the compound, how does the IC50 [1] read?
Answer: 2 nM

Question: What about the IC50 [2] of the same compound?
Answer: 7 nM

Question: What about the IC50 [3] of the same compound?
Answer: 8 nM

Question: Which results are given for `CCOc1cc(-c2cc(NCCc3c(C)sc4c(OC)ccc(F)c34)ncn2)sc1C(=O)O` [Example 28, 3-Ethoxy-5-{6-[2-(4-fluoro-7-methoxy-2-methyl-benzo[b]thiophen-3-yl)-ethylamino]-pyrimidin-4-yl}-thiophene-2-carboxylic acid]?
Answer: IC50 [1]: 2 nM; IC50 [2]: 5 nM; IC50 [3]: 11 nM

Question: For `CCOc1cc(-c2cc(NCCc3c(C)sc4c(C)ccc(Cl)c34)ncn2)sc1C(=O)O` [Example 29, 5-{6-[2-(4-Chloro-2,7-dimethyl-benzo[b]thiophen-3-yl)-ethylamino]-pyrimidin-4-yl}-3-ethoxy-thiophene-2-carboxylic acid], which IC50 [1] is on record?
Answer: 14 nM

Question: What about the IC50 [2] of the same compound?
Answer: 25 nM

Question: And the IC50 [3]?
Answer: 14 nM

Question: What does the source list for `CCOc1cc(-c2cc(NCCc3c(C)sc4c(OC)ccc(Cl)c34)ncn2)sc1C(=O)O` [Example 30, 5-{6-[2-(4-Chloro-7-methoxy-2-methyl-benzo[b]thiophen-3-yl)-ethylamino]-pyrimidin-4-yl}-3-ethoxy-thiophene-2-carboxylic acid]?
Answer: IC50 [1]: 10 nM; IC50 [2]: 18 nM; IC50 [3]: 8 nM

Question: For `CCOc1cc(-c2cc(NCCc3c(C)oc4c(OC)cc(F)c(F)c34)ncn2)sc1C(=O)O` [Example 31, 5-{6-[2-(4,5-Difluoro-7-methoxy-2-methyl-benzofuran-3-yl)-ethylamino]-pyrimidin-4-yl}-3-ethoxy-thiophene-2-carboxylic acid], which IC50 [1] is on record?
Answer: 11 nM

Question: What about the IC50 [2] of the same compound?
Answer: 27 nM

Question: And the IC50 [3]?
Answer: 10 nM

Question: Which IC50 [1] does the source give for `CCOc1cc(-c2cc(NCCc3c(C)sc4c(C)cc(F)cc34)ncn2)sc1C(=O)O` [Example 32, 3-Ethoxy-5-{6-[2-(5-fluoro-2,7-dimethyl-benzo[b]thiophen-3-yl)-ethylamino]-pyrimidin-4-yl}-thiophene-2-carboxylic acid] here?
Answer: 2 nM

Question: And the IC50 [2]?
Answer: 16 nM

Question: And the IC50 [3]?
Answer: 2 nM

Question: How did the IC50 [1] turn out when `CCOc1cc(-c2cc(NCCc3csc4ccccc34)ncn2)sc1C(=O)O` [Example 33, 5-[6-(2-Benzo[b]thiophen-3-yl-ethylamino)-pyrimidin-4-yl]-3-ethoxy-thiophene-2-carboxylic acid] was run?
Answer: 19 nM

Question: What about the IC50 [2] of the same compound?
Answer: 168 nM

Question: And the IC50 [3]?
Answer: 17 nM
